Literature values in patent EP0920301B1, “THERAPEUTIC OR HYGIENIC COMPOSITIONS WITH CONTROLLED AND PROLONGED RELEASE OF THE ACTIVE PRINCIPLE(S), IN PARTICULAR FOR OPHTHALMIC USE” (priority 1997, dated 1998).

System: la plupart des agents infectieux
Conditions: stated threshold, source not given

For sulfate de gentamicine, the concentration inhibitrice minimale is given as 4 µg/mL.
